Assay results reported in PMC8970883, “Simultaneous Determination of Seven Phenolic Acids, Two Flavonoids, and Tussilagone in Rat Plasma after Administration of Farfarae Flos Extract by LC–MS/MS” (Evidence-based Complementary and Alternative Medicine : eCAM, 2022).
Like-named read-outs stand apart in the source and are kept apart here.

Tests used:
[1] = Pharmacokinetic study in rats after intragastric administration of Farfarae Flos extract (plasma, LC-MS/MS); format: in vivo; conditions: for Cmax / Tmax / half-life / MRT last / MRT inf: male; for Cmax: rat, plasma, po; for MRT last: read-out: MRT(0–24h); for MRT inf: read-out: MRT(0–∞)
Text: A high-performance liquid chromatography instrument was used to separate three types of compounds (Agilent 1200 series, USA). The HPLC instrument is composed of four parts; a G1322A degasser, G1312A Bin Pump, G1367B auto-sampler, and G1316A thermostatic column compartment. Three types of compounds and three internal standards (ISs) were separated on an Eclipse Plus C18 (4.6 × 100 mm, 1.8 μm). The mobile phase was composed of formic acid aqueous solution (A) and formic acid methanol solution (B). The concentration of formic acid in both A and B solution was 0.1% (v/v). The gradient elution was as follows. The proportion of 10% B changes to 40% from 0 min to 3mins. 40% B changes to 90% from 16 to 18 min. B is maintained at 100% from 19 to 28 min. The flow rate, sample injected volume, and column temperature was 0.35 mL·min^−1, 10 μL, and 35°C, respectively.
Quantitative analysis of all samples was performed on Sciex API 3200 with an electrospray ionization (ESI) source. Analyst 1.6.2 workstation for instrument operation, data management, and data analysis were employed to analyze and process data (AB, Sciex). Ten analyzed compounds and three ISs were optimized during multiple reactions monitoring (MRM). […] MRM parameters of CCLA were set at 353.1-191.0. […] MRM parameters of IAB were set as 515.3-353.2 and MRM parameters of IAA were set at 515.2-353.0. MRM parameters of IAC and tussilagone were set as 515.3-352.9, 391.4-217.4, respectively.
Twenty male rats (4 months old, weight 240 ± 20 g) were obtained commercially from Vital River Laboratory Animal Company (Beijing, China). Before the pharmacokinetic experiments, they were free to eat food and drink water for one week for adapting to the environment when the dark light cycle was 12 hours, while the temperature was maintained at 25 ± 5°C. The animal experiments were guided and strictly approved by Tianjin Hospital animal ethics committee. They were fasted for 12 hours and could only drink freely water before intragastric administration of Farfarae Flos extract. Ten rats in each group were employed for eliminating data variation caused by different animal individuals. All rats in groups 1 and group 2 were orally administrated one time at two dosages of Farfarae Flos extract (carboxymethyl cellulose sodium salt (0.5%) was used to suspend the extract to prepare the administration solution 3.90 g·kg^−1 and 7.80 g·kg^−1), respectively. Rats were anesthetized with ether. The heparinized 1.5 mL polythene tube was used to collect bank plasma samples before administering dose of the extract. About 250 μL plasma samples were collected at each collecting points of 5 min, 10 min, 0.25 h, 0.50 h, 0.75 h, 1 h, 2 h, 4 h, 8 h, 12 h, 24 h, and 36 h via fossa orbitalis after dosing. All plasma samples from collecting points need to be centrifuged at 4,000 rpm for ten minutes. The supernatant fluid of centrifuged plasma samples was obtained and immediately stored at −20°C in a refrigerator until they were analyzed.
The maximum concentration (Cmax) and the time to reach the maximum concentration (Tmax) of ten target compounds were directly calculated by the real concentration-time data in the plasma. The data were expressed as mean ± SD.
Ten microliters of ISs solution (contained puerarin, ferulic acid, and artemisinin) and the plasma sample (100 μL) were added into a clean tube, and then acetonitrile (400 μL) was added to precipitate protein. After centrifugation at 14000 rpm for 10 minutes, a mild nitrogen flow was used to evaporate the liquid of the supernatant to dryness. Then, the residue was dissolved in methanol (100 μL). The solution was vortexed for 3 min, mixed for 3 minutes with ultrasound, and centrifuged for 10 min. Finally, the solution (10 μL) was used to detect concentration of ten target compounds in rat plasma.

[2] = Stability of QC samples in rat plasma (24 h, freeze-thaw, 4 weeks); format: in vitro ADME; conditions: six replicates; for Freeze-thaw stability, percent remaining: freeze-thaw cycles −20°C to 20°C; for Long stability Remain (%): stored at −80°C for 4 weeks; for 24 h stability Remain (%): 24 hours at 20°C
Experimental: Stock solution of 10 analytical compounds (1.00 mg·mL^−1) and three internal standards (ISs) was dissolved in methanol and placed in the refrigerator before testing. Methanol was used to prepare ferulic acid (IS1), puerarin (IS2), and artemisinin (IS3) solutions to reach a concentration of 1 μg mL^−1, respectively. A specific volume of each analyte stock solution is mixed together to prepare the standard working solution containing 10 analytes with a concentration of 10 times at LLOQ and three levels (high, medium, and low). Quality control (QC) samples for methodological validation were prepared to obtain the final concentration by adding standard working solution (10 μL) into blank plasma samples (100 μL).
Four concentration levels of ICB and ICA were 4, 12, 400, and 12000 ng mL^−1, respectively. Four concentration levels of caffeic acid were 10, 30, 1000, and 30000 ng·mL^−1, respectively.
In the stability test, 24-hour stability (The samples were placed for 24 hours at 20°C and then measured), freeze-thaw cycles (The sample was injected after the temperature changing from −20°C to 20°C), and 4 weeks stability (The sample was determined after stored at −80°C for 4 weeks) of representative QC samples were all tested. All of them were assayed with six replicates.

[3] = previous pharmacokinetic study on chlorogenic acid ref 15; cited from earlier work
[4] = 3.9 g/kg, oral Farfarae Flos extract 3.9 g·kg^−1, mean ± SD
[5] = rat plasma, oral Farfarae Flos extract 3.9 g·kg^−1, mean ± SD
[6] = rat plasma, oral Farfarae Flos extract 7.8 g·kg^−1, mean ± SD
[7] = high concentration level (3000-30000 ng·mL^−1)
[8] = low concentration level (3-30 ng·mL^−1)
[9] = medium concentration level (100-1000 ng·mL^−1)

| Structure (SMILES) | Cmax [1, 4] [ng/mL] | Tmax [1, 5] [min] | half-life [1, 5] [min] | MRT last [1, 5] [h] | MRT inf [1, 5] [h] | Tmax [1, 6] [min] | half-life [1, 6] [min] | MRT last [1, 6] [h] | MRT inf [1, 6] [h] | AUC(0–24h) [1, 5] [ng/mL ∗ h] | AUC(0–∞) [1, 5] [ng/mL ∗ h] | AUC(0–24h) [1, 6] [ng/mL ∗ h] | AUC(0–∞) [1, 6] [ng/mL ∗ h] | Freeze-thaw stability, percent remaining [2, 7] [%] | Long stability Remain (%) [2, 7] [%] | Long stability Remain (%) [2, 8] [%] | Freeze-thaw stability, percent remaining [2, 9] [%] | other results |
| --- | --- | --- | --- | --- | --- | --- | --- | --- | --- | --- | --- | --- | --- | --- | --- | --- | --- | --- |
| O=C(/C=C/c1ccc(O)c(O)c1)O[C@@H]1C[C@](O)(C(=O)O)C[C@@H](O)[C@H]1O [CLA, chlorogenic acid] | 538 ± 489 | 38.4 ± 14.6 | 130 ± 87.6 | 4.4 ± 1.71 | 5.41 ± 2.04 | 22.8 ± 8.4 | 76.8 ± 33.6 | 4.63 ± 1.36 | 5.32 ± 1.55 | 1425 ± 1046 | 1467 ± 1044 | 3611 ± 1023 | 3692 ± 1052 | 115 | 112 | 114 | 88.7 | MRT [3]: 5.08 ± 0.89 h; Tmax [3]: 42 ± 11.4 min |
| C=C1[C@H](OC(=O)/C=C(\C)CC)C[C@@H](C(C)C)[C@@H]2[C@@H]([C@@H](C)OC(C)=O)C(=O)C[C@@H]12 [Tussilagone, tussilagone] | 0.83 ± 0.5 | 26.4 ± 22.8 | 16.8 ± 12 | 0.87 ± 0.134 | 3.12 ± 2.62 | 24 ± 19.8 | 49.2 ± 43.2 | 2.42 ± 2.1 | 6.98 ± 9.13 | 1.06 ± 0.564 | 2.19 ± 1.98 | 35.48 ± 42.302 | 47.12 ± 49.445 | 91.8 | 109 | 101 | 115 | Cmax ([1]; 7.8 g/kg, oral Farfarae Flos extract 7.8 g·kg^−1, mean ± SD): 18.1 ± 13 ng/mL; Terminal elimination half-life ([1]; rat plasma, compared among the three types of compounds, Farfarae Flos extract 3.90 and 7.80 g·kg^−1): shortest; 24 h stability Remain (%) [2, 7]: 95.0%; 24 h stability Remain (%) [2, 8]: 100%; Freeze-thaw stability, percent remaining [2, 8]: 83.9%; 24 h stability Remain (%) [2, 9]: 92.1%; Long stability Remain (%) [2, 9]: 107% |
